Reference: US20210228523A1, “MODULATORS OF SESTRIN-GATOR2 INTERACTION AND USES THEREOF” (Navitor Pharmaceuticals, Inc., priority 2017, published 2021)

Legend:
mTORC1 = experiment: Western blot of pS6 in rat brain and selected peripheral organs; assay type: in vivo; conditions: Example D; NV-5138 160 mg/kg oral; 1 hr post-dose
Method: Study Design: Thirty (30) male rats weighing between 175 and 200 g were randomized into 3 study groups (n=10), following a 5-day acclimation period. One hour following dosing rats were sacrificed by conscious decapitation, plasma, brain and selected peripheral tissues were harvested for compound level and WB analysis. Tissues were prepared for WB to quantitate the mTORC1 substrate pS6 as a measure of mTORC1 activity.
The dosing volume based on the weight of the animal (10 mL/kg) was administered by oral gavage. Test articles were prepared the day of dosing.
Tissues Preparations: One hour following dosing rats were sacrificed by conscious decapitation, plasma, brain and peripheral tissues were harvested and immediately frozen in liquid nitrogen. Tissues were thawed and homogenized for 1 min twice using MP homogenizer in Lysis Buffer (Cell lysis buffer: 1% Triton X-100, 50 mM HEPES pH 7.4, 100 mM NaCl, 2 mM EDTA, 10 mM Beta-glycerophosphate, 10 mM Sodium pyrophosphate, and 1 protease inhibitor tab per 50 mL fresh) at 4° C. Lysates were then sonicated on ice for 20 s at 50% amplitude. The protein concentration was determined by Bradford assay and all samples were mixed with loading buffer (50 mM Tris-HCl pH 6.8, 2% SDS, 5% glycerol, 5% β-mercaptoethanol and 0.01% Bromophenol blue) and stored at −20° C. until WB analysis.
Western Blot (WB) Analysis. Equal amounts of each sample (15 μg of total protein) were loaded and separated on NuPAGE 4-12% Bis-Tris gels and transferred to PVDF membrane (Immobilon-FL PVDF membrane, Millipore) using CAPS Buffer (10 mM 3-(Cyclohexylamino)-1-propanesulfonic acid, 12.5% Ethanol pH=10). After transfer, membranes were incubated for 1 hr at room temperature in Odyssey blocking buffer (Licor). After blocking, membranes were incubated at 4° C. overnight with primary antibodies. Primary antibodies used were rabbit anti-[…] (cell signaling; #5364) at 1:1000, mouse anti-GAPDH (Sigma; #G8795) at 1:1000 and mouse anti-a-tubulin (Sigma; #T5168) at 1:10000 in Odyssey blocking buffer. The next day, membranes were washed three times in 1×TBS-Tween (25 mM Tris, pH 7.4, 3.0 mM KCl, 140 mM NaCl and 0.05% Tween-20) and incubated with dye-coupled secondary antibodies (goat anti-mouse IRdye680, and goat anti-rabbit IRdye800 from LI-COR) at 1:20000 in Odyssey blocking buffer for 30 min then wash three times in IX TBS-Tween. Signals were quantified using the Odyssey Infrared Imaging System (LI-COR Bioscience). The resulting densitometric readings were used to generate a ratio of phopho-protein to a-tubulin or GAPDH. The resulting ratio was further normalized to vehicle treated control group.

[1] = test system: layer V pyramidal neurons in PFC; experiment: Whole cell patch clamp recording of 5-HT- and Hcrt-induced EPSCs in brain slices after oral dosing; assay type: in vivo, rat; conditions: Example H, NV-5138 160 mg/kg oral single dose
Method: Study Design: Sixteen (16) male rats weighing between 175 and 200 g were randomized into 2 study groups (n=8), following a 5-day acclimation period. On study day 0, rats received a single dose of either NV vehicle (Veh, 0.5% methylcellulose/0.1% Tween-80) or NV-5138 (160 mg/kg), by oral gavage. On day 1, 24 hrs after dosing, rats were sacrificed, and brain slices were prepared and subjected to whole cell patch clamp recording of layer V pyramidal neurons in PFC.
Preparation of Test Articles: NV-5138 (Navitor, Lot #07) was prepared by dissolving in Veh (0.5% methylcellulose/0.1% Tween-80) at a concentration of 50 mg/mL. The dosing volume based on the weight of the animal (3.2 mL/kg) was administered by oral gavage to study animals. Test articles were prepared the day of dosing.
Brain Slice Preparation: Brain slices were prepared according to published procedures (Liu, R. J. et al., J. Neurosci. 22(21): 9453-9464 (2002)). Briefly, rats were anesthetized with chloral hydrate (400 mg/kg, i.p.), in adherence to protocols approved by the Yale Animal Care and Use Committee. After decapitation, the brains were removed rapidly and placed in ice-cold (4° C.) artificial cerebrospinal fluid (ACSF) in which sucrose (252 mM) was substituted for NaCl (sucrose-ACSF) to prevent cell swelling. A block of tissue containing PFC was dissected and coronal slices (400 μm) were cut in sucrose-ACSF with an oscillating-blade tissue sheer (Leica VT1000S). After placement of the slice in a submerged recording chamber, the bath temperature was raised to 32° C. Known concentrations of drugs dissolved in ACSF, applied through a stopcock arrangement at a fast flow rate (4 mL/min), reached the slice within 7-10 s. […] A recovery period of ˜1-2 h was allowed before commencement of recording.
Electrophysiology Recording. […] Series resistance, monitored throughout the experiment, was usually between 4 and 8 MΩ. […]

CC(C)(C[C@H](N)C(=O)O)C(F)F [NV-5138]
level of pS6 in rat epididymal fat (mTORC1): significantly increased | level of pS6 in rat heart (mTORC1): significantly increased | level of pS6 in rat kidney (mTORC1): significantly increased | level of pS6 in rat tibialis anterior (mTORC1): significantly increased | pS6 levels in liver (mTORC1): not the liver | pS6 levels in rat brain (mTORC1): significant activation of mTORC1 | pS6 levels in testes (mTORC1): significant activation | amplitude of 5-HT- and Hcrt-induced EPSCs (cumulative probability distribution) ([1]; FIG. 31, 24 hrs): on frequency but not amplitude | frequency of 5-HT-induced EPSCs relative to vehicle-treated rats ([1]; 24 hrs after dosing): significantly increased | frequency of Hcrt-induced EPSCs relative to vehicle-treated rats ([1]; 24 hrs after dosing): significantly increased
